{"source": "patent US8916610B2", "about": "“Acid addition salt of a nortriptyline-GABA conjugate and a process of preparing same” (Ramot at Tel-Aviv University Ltd., priority 2010, dated 2014)", "key": {"[1]": {"method": "Surface area data were collected using nitrogen absorption on a BET Micrometics Gemini V (11-point BET analysis) analyzer. The samples were outgassed at 25° C. under vacuum for at least 2 hours. SRM 1899 and SRM 1900 were used as the calibration standards."}, "[2]": {"from_the_text": "Samples were submitted to Particle Technology Labs (PTL), Downers Grove, Ill., for bulk and tapped density analyses.", "remark": "listed apart in the source"}, "[3]": {"from_the_text": "Particle size data was acquired using a Malvern Instruments MS2000 equipped with a Hydro2000μP dispersion unit. Data was collected and analyzed with Mastersizer 2000v.5.1 software, using volume based measurements. NIST traceable glass beads were used as the reference standard.\nThe final method conditions selected for determining the particle size of BL-1021 fumarate salts were as follows:\nDispersant: silicone oil;\nDispersant refractive index: 1.403;\nThe measurement of particle size of all lots was performed using the same method conditions (silicone oil as a dispersing medium, a pump speed of 1750 rpm).", "remark": "listed apart in the source"}, "[4]": {"conditions": "batches after milling, listed as CC-2190.0-20.1"}, "[5]": {"conditions": "batches after milling, listed as CC-2190.0-21.1"}, "[6]": {"conditions": "batches after milling, listed as CC-2190.0-23.1"}, "[7]": {"conditions": "batches after milling, listed as CC-2562.0-01.1"}, "[8]": {"conditions": "batches before and after milling"}, "[9]": {"conditions": "silicone oil dispersing medium, pump speed 1750 rpm, volume based, text b315 speaks of μm"}}, "note": "Where two headings read alike, the source gives them in different places."}
{"smiles": "CN(CCC=C1c2ccccc2CCc2ccccc21)C(=O)CCCN.O=C(O)/C=C/C(=O)O", "note": "[BL-1021 fumarate salt, nortriptyline-4-aminobutyrate fumarate]", "values": [{"measurement": "BET surface area, Results", "setting": "[1]; batch before milling", "result": 6.58, "unit": "m^2/g"}, {"measurement": "BET surface area, Results", "setting": "[1]; [4]", "result": 8.43, "unit": "m^2/g"}, {"measurement": "BET surface area, Results", "setting": "[1]; [5]", "result": 10.84, "unit": "m^2/g"}, {"measurement": "BET surface area, Results", "setting": "[1]; [6]", "result": 11.84, "unit": "m^2/g"}, {"measurement": "BET surface area, Results", "setting": "[1]; [7]", "result": 7.45, "unit": "m^2/g"}, {"measurement": "Bulk density", "setting": "[2]; batch before milling", "result": 0.29, "unit": "g/mL"}, {"measurement": "Tapped density", "setting": "[2]; batch before milling", "result": 0.42, "unit": "g/mL"}, {"measurement": "Bulk density", "setting": "[2]; [4]", "result": 0.22, "unit": "g/mL"}, {"measurement": "Tapped density", "setting": "[2]; [4]", "result": 0.35, "unit": "g/mL"}, {"measurement": "Bulk density", "setting": "[2]; [5]", "result": 0.18, "unit": "g/mL"}, {"measurement": "Tapped density", "setting": "[2]; [5]", "result": 0.31, "unit": "g/mL"}, {"measurement": "Bulk density", "setting": "[2]; [6]", "result": 0.25, "unit": "g/mL"}, {"measurement": "Tapped density", "setting": "[2]; [6]", "result": 0.39, "unit": "g/mL"}, {"measurement": "Bulk density", "setting": "[2]; [7]", "result": 0.19, "unit": "g/mL"}, {"measurement": "Tapped density", "setting": "[2]; [7]", "result": 0.36, "unit": "g/mL"}, {"measurement": "bulk density (range over batches)", "setting": "[2]; [8]", "result": "0.18-0.29 gram/ml"}, {"measurement": "tapped density (range over batches)", "setting": "[2]; [8]", "result": "0.31-0.42 gram/ml"}, {"measurement": "particle size distribution d10", "setting": "[3]; [9]", "result": 7.0}, {"measurement": "particle size distribution d50", "setting": "[3]; [9]", "result": 93.9}, {"measurement": "particle size distribution d90", "setting": "[3]; [9]", "result": 220.8}, {"measurement": "D90 (as stated in text, FIG. 6)", "setting": "[3]; silicone oil, 1750 rpm", "result": "200±25", "unit": "%"}, {"measurement": "particle size up to (upper end of bimodal distribution, FIG. 6)", "setting": "[3]; silicone oil, 1750 rpm, fine tail below 1 μm", "result": "≤ 400", "unit": "μm"}]}
